Experimental data as given in patent US20200216863A1, “Use of renewable deep eutectic solvents in a one-pot process for a biomass” (National Technology & Engineering Solutions of Sandia, LLC, priority 2019, published 2020).

Key:
[1] = tested on: yeast; details: cited from earlier work
[2] = tested on: yeast strain JBEI-9009; assay type: cell-based
Experimental: Next, in order to test the feasibility of C5/C6 sugar cofermentation and thus to further improve the economic feasibility of the process,(22) the yeast strain JBEI-9009, developed in our lab for optimized xylose consumption,(30) was used for further experiments.
(§1) The effect of DES-Ch12 supplementation on growth and carbon utilization of JBEI-9009 was analyzed in a plate reader-based assay. […] To test if the presence of DES-Ch12 in the media impairs the ability of the strain JBEI-9009 to efficiently utilize xylose, the strain was cultivated in CSM media with 2 wt % xylose containing 10 wt % Ch12 and final samples were taken for HPLC measurements.

[3] = tested on: unmodified control strain; assay type: cell-based, yeast
Experimental: as §1

Compound: O=C(O)c1ccccc1 [Benzoic acid]
- concentration required for inhibition of yeast growth [1]: ~1 mM

Compound: O=Cc1ccc(CO)o1 [HMF, hydroxymethylfurfural]
- concentration with significant inhibition of yeast growth [1]: 3 g/L
- ethanol yield in presence of inhibitor [1]: 89%

Compound: O=C(O)/C=C/c1ccc(O)cc1 [p-coumaric acid]
- concentration required for inhibition of yeast growth [1]: ~1 mM

Compound: [Ch][Cl]-2glycerol [Ch12]
- growth tolerance [2]: without showing significant growth limitations
- lag phase [2]: longer lag phase
- growth tolerance [3]: without showing significant growth limitations
